According to patent US9878984B2, “Anti-cancer compounds” (NORTHWESTERN UNIVERSITY, priority 2008, dated 2018):

Legend:
[1] = test system: Normal cells (PBMC, HUVEC, and WI-38); assay: Cancer cell selective growth inhibition (cancer cells vs normal cells); assay type: cell-based, human; settings: 72 hr MTS
Description: […] Peripheral blood mononuclear cells (PBMCs) were voluntarily collected from a healthy laboratory worker by standard sterile phlebotomy techniques and isolated using Vacutainer CPT collection tubes (BD Biosciences—Bedford, Mass.). PBMCs were isolated freshly for each experiment. All DMEM and RPMI-1640 media was supplemented with 10% FBS (Atlanta Biologicals—Lawrenceville, Ga.) and 100 U/mL penicillin and streptomycin (Invitrogen). HUVEC (Human umbilical vein endothelial cells) were cultured in EGM-2 media with supplements provided in the manufacturers BulletKit (Lonza—Walersville, Md.). All cells were maintained at 37° C. and in a 5% CO2 atmosphere.
Growth Inhibition Assays: HeLa, MDA-MB-231, PC-3M, WI-38, and HUVEC cells were plated at 5,000 cells per well in 96 well plates and allowed to attach for 20 hr (8 hr for HeLa). The media was removed and 198 μL of fresh media was added to each well. […] PBMCs were isolated and plated at 100,000 per well in 96 well plates with a volume of 197 μL. They were allowed to settle in the media for 20 hr, at which point 1 μL of 1 mg/mL phytohemagglutinin (Sigma—St. Loius Mo.) in PBS was added to stimulate proliferation (final concentration of 5 μg/mL). […] Cell proliferation was measured at t=0 (time at start of treatment) and t=72 hr using MTS AQueous non-radioactive proliferation assay (Promega—Madison, Wis.). This assay utilizes the metabolic conversion of yellow tetrazolium to a purple formazan by live cells and the color change is proportional to the number of cells. […] The absorbance at 490 nm in each well was read with a Spectramax 250 plate reader (Molecular Devices—Sunnyvale, Calif.). […] Data were fit to one site dose response curves in order to obtain specific growth inhibitory concentrations and the relative standard errors of the mean for these concentrations were calculated by the XLfit4 software. Statistical significance (p value) for the selectivity and all subsequent assays was determined with the two tailed homoscedastic Student's t-test. […]

[2] = test system: pBR322 plasmid DNA; assay: DNA intercalation assay (topoisomerase I based plasmid DNA unwinding); assay type: biochemical; settings: 10, 31.6, and 100 μM, human topoisomerase I
Description: DNA Intercalation Assay: A DNA unwinding assay was performed as previously described with minor modifications. Four Units of recombinant wild type human topoisomerase I (Topogen—Port Orange, Fla.) were incubated with reaction buffer (included with enzyme), ˜0.5 μg of pBR322 plasmid DNA, which is a mixture of form I and form II plasmid DNA, and water added to a final volume of 19 μL. The reactions were incubated at 37° C. for 30 min and then 1 μL of each compound was added to give a final concentration of 10, 31.6, and 100 μM (final solvent concentration of 1% DMSO) and the reaction mixture was incubated at 37° C. for another 30 min. The reaction was stopped by the addition of 5 μL gel loading dye. The samples were immediately loaded onto a 1% agarose gel and electrophoresis was performed at 50 V for 3 h at room temperature. Pictures of the gels were obtained using a Kodak Image Station 440 CF (Kodak—Rochester, N.Y.) equipped with a UV source.
This activity depends on the ability of these compounds to intercalate DNA, which is the proposed mechanism of cytotoxic action of amonafide and its analogs. Therefore, the intercalation of plasmid DNA by A1-A9 was compared with the intercalation by amonafide to determine if they behave similarly. A topoisomerase I (topo I) based plasmid DNA unwinding assay was used to determine the intercalation of each compound [1]. […]

`CCCCCCNc1ccc2c3c(cccc13)C(=O)N(CCN(C)C)C2=O` [A5, 6-hexylamino-2-[2-(dimethylamino)ethyl]-1H-benz[de]isoquinoline-1,3(2H)-dione] was tested, and the “cancer cell selective growth inhibition (selectivity)” value [1] was “doing so significantly (p<0.05)” and the DNA intercalation [2] was “intercalates much less than the other compounds”.
